# Measured values from US5332427A, “Wood preservatives” (priority 1991, dated 1994).
# Columns and labels:
# [1] = tested on: Coriolus versicolor; test: Wood weight reduction after weather resistance operation, test method of Japan Wood Preservation Association, Coriolus versicolor/Japanese beech (Test Example 3); details: oil formulation, Japanese beech, 30 weather resistance cycles, 8 weeks
# Method: (§1) An oil formulation of each of the test compounds shown in Table 5 was prepared according to Formulation Example 1 and was tested based on the test method of Japan Wood Preservation Association. The summary of the test method is as follows:
# (§2) The cut end surfaces of a wooden piece of Japanese beech or Japanese cedar (thickness: 5 mm, width: 20 mm, length: 40 mm; the surface of 40×20 mm is of straight grain) were sealed with an epoxy resin and the wooden piece was impregnated with the oil formulation (110±10 g/m^2 surface area), and thereafter air-dried for 20 days to prepare a test specimen. The test specimen was dipped in still water [water:wooden piece=10:1 (volume ratio)] at 25°±3° C. for 5 hours, and then the water was volatilized at 40±2° C. for 19 hours. This weather resistance operation was repeated 30 times. The test specimen after the weather resistance operation was dried at 60°±2° C. for 48 hours and then placed in a desicator for about 30 minutes, after which the weight (W3) of the test specimen was measured. The test described above was repeated for 9 wooden pieces. The test specimen was sterilized and then, placed in a culture vial in which wood rotting fungi (Coriolus versicolor/Japanese beech, Tyromyces palustris/Japanese cedar) were being cultured, in which cultivation was effected at 26°±2° C. at a humidity of 80% for 8 weeks. After 8 weeks, the test specimen was taken out of the culture vial and the mycelium and other extraneous matters were removed therefrom, after which the test specimen was dried at 60°±2° C. for 48 hours and placed in a desicator for about 30 minutes. Thereafter, the weight (W4) of the test specimen was measured. The weight reduction percentage was calculated according to the following equation: [formula]
# [2] = tested on: Tyromyces palustris; test: Mycelium growth inhibition on potato dextrose agar medium, Tyromyces palustris (Test Example 2); format: cell-based; details: four days after inoculation
# Method: (§3) Each of the test compounds shown in Tables 3 and 4 was dissolved in a definite amount of dimethylsulfoxide to prepare a 1% W/V solution. A definite amount of the resulting formulation was added to a potato dextrose agar medium just after sterilization (using a moist heat sterilizer) and about 20 cc of the mixture was poured into a Petri dish of 9 cm in diameter and the Petri dish was placed at room temperature. After the medium was solidified, mycelium from a colony of Coriolus versicolor or Tyromyces palustris cultured previously was punched with a cork borer of 5 mm in diameter and the mycelium was inoculated at the center of the test medium. Four days after the inoculation, the diameter of colony extended from the inoculation point was measured and the percentage of mycelium growth inhibition was calculated according to the following equation: [formula]
# [3] = Discoloration (coloration) of oil formulation-coated filter paper under irradiation with light (Test Example 1); format: physicochemical; set-up: key: -: No discoloration (coloration); +: Slight discoloration (coloration); ++: Prominent discoloration (coloration); details: 1% oil formulation, 100 ml per m^2 of filter paper, light of 6000-7000 lux for 5 minutes
# Method: A 1% oil formulation of each of the test compounds shown in Table 2 was prepared according to Formulation Example 1. The oil formulation was coated on a filter paper having a diameter of 5.5 cm in an amount of 100 ml of the oil formulation per m^2 of the filter paper and the filter paper was air-dried. The filter paper thus prepared was subjected to irradiation with light of 6000-7000 lux for 5 minutes and then, taken out, after which the degree of discoloration (coloration) was observed. The degree of discoloration (coloration) was determined based on the following standard.
# No discoloration (coloration): -
# Slight discoloration (coloration): +
# Prominent discoloration (coloration): ++
# [4] = tested on: Coriolus versicolor; test: Mycelium growth inhibition on potato dextrose agar medium, Coriolus versicolor (Test Example 2); format: cell-based; details: four days after inoculation
# Method: as §3
# [5] = tested on: Tyromyces palustris; test: Wood weight reduction after weather resistance operation, test method of Japan Wood Preservation Association, Tyromyces palustris/Japanese cedar (Test Example 3); details: oil formulation, Japanese cedar, 30 weather resistance cycles, 8 weeks
# Method: as §1, §2
Compound,Average weight reduction percentage ([1]; concentration 1.0%),Percentage of growth inhibition for Tyromyces palustris ([2]; 1 ppm),Percentage of growth inhibition for Tyromyces palustris ([2]; 2 ppm),Percentage of growth inhibition for Tyromyces palustris ([2]; 4 ppm),Degree of discoloration (coloration) [3],Percentage of growth inhibition for Coriolus versicolor ([4]; 1 ppm),Percentage of growth inhibition for Coriolus versicolor ([4]; 2 ppm),Percentage of growth inhibition for Coriolus versicolor ([4]; 4 ppm),Average weight reduction percentage ([5]; concentration 1.0%),Average weight reduction percentage ([1]; concentration 0.5%),Average weight reduction percentage ([5]; concentration 0.5%)
3-Iodo-2-propenylbutyl carbamate [Compound (B)],7.6%,80.5 Percentage,88.7 Percentage,100 Percentage,+,81.3 Percentage,91.9 Percentage,100 Percentage,0.78%,,
"CC(C)(C)C(O)/C(=C\c1ccc(Cl)cc1Cl)n1cncn1 (single isomer, unassigned; (-)) [Compound (1), (-)-(E)-1-(2,4-dichlorophenyl)-4,4-dimethyl-2-(1,2,4-triazol-1-yl)-1-penten-3-ol]",0.64%,79.1 Percentage,93.0 Percentage,95.6 Percentage,-,86.1 Percentage,93.9 Percentage,98.3 Percentage,0.19%,0.70%,0.25%
"CC(C)(C)C(O)/C(=C\c1ccc(Cl)cc1)n1cncn1 (single isomer, unassigned; (-)) [Compound (2), (-)-(E)-1-(4-chlorophenyl)-4,4-dimethyl-2-(1,2,4-triazol-1-yl)-1-penten-3-ol]",,94.6 Percentage,98.8 Percentage,100 Percentage,-,85.3 Percentage,87.2 Percentage,93.9 Percentage,,,
"CCOC(=O)OCC(I)=C(Br)I [Compound (A), 3-Bromo-2,3-diiodo-2-propenylethyl carbonate]",3.9%,26.6 Percentage,43.0 Percentage,63.3 Percentage,,20.0 Percentage,41.7 Percentage,72.8 Percentage,3.1%,,
"Clc1ccc(OCOCC#CI)cc1 [Compound (C), 4-Chlorophenyl-3-iodopropargyl formal]",1.1%,77.0 Percentage,98.6 Percentage,100 Percentage,++,68.2 Percentage,88.7 Percentage,97.9 Percentage,0.34%,,
